Reference: patent US9056081B2, “Compositions for treating pseudomonas infection” (Universitätsklinikum Hamburg-Eppendorf, priority 2009, dated 2015)
“Also recorded” adds a separate entry of the source. Read-outs that look alike come from different tables or passages of the source. Ends that are not written are not given here.

Experiments:
human airway cilia = experiment: Ciliary beat frequency (CBF) of human nasal mucosa, substances alone without lectin; type: cell-based; settings: no lectin, over 24 h; for effect on the ciliary beat frequency (CBF), monosaccharide alone: 0.2 M monosaccharide
Experimental: The influence of monosaccharides and several peptides (obtained from Centre for Molecular Neurobiology, Hamburg, Germany) alone and in combination with PA-IL or PA-IIL on CBF was also investigated. The monosaccharides (0.2 M) and peptides (0.968 mM) were pre-incubated with 10 μg/ml PA-IL and 10 μg/ml PA-IIL, respectively, for 30 min at room temperature, at which they were agitated the for whole time and then added to the medium and the CBF was monitored over a 24 h period. […]

PA-IL = PA-IL (Pseudomonas aeruginosa, UniProt Q05097); experiment: cell-based; type: cell-based
Sequence of PA-IL (Q05097 whole entry): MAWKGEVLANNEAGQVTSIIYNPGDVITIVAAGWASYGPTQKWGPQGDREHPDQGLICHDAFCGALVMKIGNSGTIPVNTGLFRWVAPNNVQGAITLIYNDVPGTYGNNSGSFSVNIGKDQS
Experimental: (§1) Experiments were carried out on human nasal conchae, obtained during routine surgery from the ENT Hospital of the University Medical Center Hamburg-Eppendorf, Hamburg, Germany. For the measurement of CBF, small pieces of nasal mucosa were punched out of the nasal conchae by a special biopsy punch (Stiefel Laboratorium GmbH, Offenbach, Germany) (4-6 pieces per nasal conchae) and transferred to Petri dishes (Greiner Bio-One, Kremsmünster, Austria) containing RPMI-1640 and L-Glutamine medium (Gibco, Karlsruhe, Germany) supplemented with 10% fetal calf serum (Gibco, Karlsruhe, Germany), 1% Penicillin-Streptomycin (10 000 U/ml, Gibco, Karlsruhe, Germany) and 0.9% Amphotericin B (250 UG/ml, Gibco, Karlsruhe, Germany) as a fungicide. The specimens were maintained under standard cell culture conditions at 37° C. in 5% CO2 for up to two weeks.
(§2) The aim of this experiment was to compare the efficiency of different sugar solutions and peptides to block PA-IL and PA-IIL binding to cilia in tissue sections and in vitro airway cultures by measuring their ciliary beat frequency (CBF). Actively beating ciliated cells were viewed trough phase-contrast optics of a Leica DM IRB HC inverted microscope (Leica, Bensheim, Germany) placed on a Micro-g vibration isolation table (TMC, Peabody, Mass.). During the experiments, the cultured tissue samples were maintained at a constant temperature (35±0.5° C.) by a thermostatically controlled heated stage. The signals were measured and analysed by a computer system incorporating a special purpose MPV-CBF software (Software-Entwicklung Radmann, Solms, Germany). The CBF was calculated by collecting data from 512 readings (10 s) and by performing Fourier analysis (Mewe et al. 2005). Five of these Fourier transforms taken per nasal conchae piece were measured.
The influence of monosaccharides and several peptides (obtained from Centre for Molecular Neurobiology, Hamburg, Germany) alone and in combination with PA-IL or PA-IIL on CBF was also investigated. The monosaccharides ([…]) were pre-incubated with 10 μg/ml PA-IL and 10 μg/ml PA-IIL, respectively, for 30 min at room temperature, at which they were agitated the for whole time and then added to the medium and the CBF was monitored over a 24 h period. Measurement was carried out after 0, 1, 2, 3, 5, 8, 24 h incubation. Negative controls were maintained in medium with no additions made. Positive controls were maintained in medium with PA-IL or PA-IIL, respectively.
In CBF analysis, the influence of monosaccharides (D-galactose and L(−)-fucose) and the HNK-1 mimetic peptide pHNK-1 alone and in combination with PA-IL on CBF was investigated.

PA-IIL [1] = molecular target: T1, PA-IIL (Pseudomonas aeruginosa, UniProt Q9HYN5); experiment: cell-based; type: cell-based
T1 sequence (Q9HYN5 entry or part of it): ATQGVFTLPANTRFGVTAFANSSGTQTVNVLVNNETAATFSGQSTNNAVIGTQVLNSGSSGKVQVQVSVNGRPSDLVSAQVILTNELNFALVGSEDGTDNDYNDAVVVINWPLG
Experimental: as §1, §2
(§3) The influence of monosaccharides and several peptides (obtained from Centre for Molecular Neurobiology, Hamburg, Germany) alone and in combination with PA-IL or PA-IIL on CBF was also investigated. The monosaccharides (0.2 M) and peptides (0.968 mM) were pre-incubated with 10 μg/ml PA-IL and 10 μg/ml PA-IIL, respectively, for 30 min at room temperature, at which they were agitated the for whole time and then added to the medium and the CBF was monitored over a 24 h period. Measurement was carried out after 0, 1, 2, 3, 5, 8, 24 h incubation. Negative controls were maintained in medium with no additions made. Positive controls were maintained in medium with PA-IL or PA-IIL, respectively.
For CBF analysis monosaccharides (D-galactose and L(−)-fucose) and peptides were pre-incubated with PA-IIL and the CBF was determined.

[2] = Storage stability of monosaccharide solutions (data not shown); type: physicochemical; settings: stored at room temperature or at 4° C. dissolved in an aqueous solution
PA-IL and PA-IIL = experiment: CBF assay: simultaneous application of PA-IL and PA-IIL; type: cell-based, Pseudomonas aeruginosa
Experimental: Experiments were carried out on human nasal conchae, obtained during routine surgery from the ENT Hospital of the University Medical Center Hamburg-Eppendorf, Hamburg, Germany. […]
The aim of this experiment was to compare the efficiency of different sugar solutions and peptides to block PA-IL and PA-IIL binding to cilia in tissue sections and in vitro airway cultures by measuring their ciliary beat frequency (CBF). […] The signals were measured and analysed by a computer system incorporating a special purpose MPV-CBF software (Software-Entwicklung Radmann, Solms, Germany). The CBF was calculated by collecting data from 512 readings (10 s) and by performing Fourier analysis (Mewe et al. 2005). Five of these Fourier transforms taken per nasal conchae piece were measured.
as §3, with “Measurement was carried out after 0, 1, 2, 3, 5, 8, 24 h incubation. Negative controls were maintained in medium with no additions made. Positive controls were maintained in medium with PA-IL or PA-IIL, respectively.” left out

PA-IIL [3] = molecular target: T1, PA-IIL; type: cell-based; settings: 0.121-0.484 mM peptide co-incubated with 10 μg/ml PA-IIL, 24 h
[4] = 0.2 M monosaccharide co-incubated with 10 μg/ml PA-IL, 24 h
[5] = 0.2 M monosaccharide co-incubated with 10 μg/ml PA-IIL, 24 h
[6] = 0.121 mM peptide co-incubated with 10 μg/ml PA-IL, 24 h
[7] = 0.242 mM peptide co-incubated with 10 μg/ml PA-IL, 24 h

Compound | effect on the ciliary beat frequency (CBF), monosaccharide alone (human airway cilia) | effect on the CBF-decreasing effect of PA-IL (PA-IL; [4]) | effect on the CBF-decreasing effect of PA-IIL (PA-IIL [1]; [5]) | stability and inhibitory potency of the solution on storage [2] | effect on the ciliary beat frequency (CBF), peptide alone (human airway cilia; 0.968 mM peptide) | IC50 (PA-IL) | effect on the CBF-decreasing effect of PA-IL (PA-IL) | effect on the CBF-decreasing effect of PA-IL (PA-IL; [6]) | effect on the CBF-decreasing effect of PA-IL (PA-IL; [7]) | IC50 (PA-IIL [1]) | effect on the CBF-decreasing effect of PA-IIL (PA-IIL [1]) | effect on the decrease of CBF after simultaneous application of PA-IL and PA-IIL (PA-IL and PA-IIL) | effect on the CBF-decreasing effect of PA-IIL (PA-IIL [3]) | effect on the CBF-decreasing effect of PA-IL (PA-IL; listed as scrambled version of the peptide pHNK-1)
C[C@H](O)[C@@H](O)[C@@H](O)[C@H](O)C=O [L(−)-fucose, reference compound] | had no effect on the CBF | resulted in a continuous decrease of the CBF within 24 h; also recorded: did not inhibit | could be reduced; also recorded: reduced the CBF-decreasing effect of the PA lectin | not stable and loose their inhibitory potency |  |  |  |  |  |  |  |  |  | 
FLHTRLFV [pHNK-1] |  |  |  |  | had no effect on the CBF | 484 µM | blocked the CBF-decreasing effect of PA-IL; also recorded: reduced the CBF-decreasing effect of the PA lectin; also recorded: could be reduced | resulted in a continuous decrease of the CBF within 24 h | resulted in a continuous decrease of the CBF within 24 h | 968 µM | inhibited the CBF-decreasing effect of PA-IIL; also recorded: reduced the CBF-decreasing effect of the PA lectin; also recorded: blocked | caused an inhibition of lectin induced suppression of CBF; also recorded: could be inhibited | resulted in a continuous decrease of the CBF within 24 h | 
O=C[C@H](O)[C@@H](O)[C@@H](O)[C@H](O)CO [D-galactose, reference compound] | had no effect on the CBF | reduced the CBF-decreasing effect of the PA lectin; also recorded: could be effectively reduced | no inhibition could be achieved; also recorded: resulted in a decline of the CBF within 24 h; also recorded: did not inhibit | not stable and loose their inhibitory potency |  |  |  |  |  |  |  |  |  | 
TVFHFRLL [sHNK-1] |  |  |  |  |  |  | also reduced the CBF-decreasing effect of PA-IL; also recorded: reduced the CBF-decreasing effect of the PA lectin; also recorded: resulted in a continuous decrease of the CBF within 24 h | resulted in a continuous decrease of the CBF within 24 h | resulted in a continuous decrease of the CBF within 24 h |  | resulted in a continuous decrease of the CBF within 24 h; also recorded: none of the other tested peptides (sHNK-1, pLeX, sLeX) had any consequence; also recorded: had no effect |  |  | also reduced the CBF-decreasing effect of PA-IL
